Each structure is given as a SMILES string.

The values that follow come from patent US20230234942A1, “COMPOUNDS FOR TREATING HUNTINGTON'S DISEASE” (PTC Therapeutics, Inc., priority 2020, published 2023).

The assay has as its system Endogenous Huntingtin Protein. The experiment in a line: Endogenous Huntingtin Protein Assay (ELISA-based MSD electrochemiluminescence). Type of assay: cell-based. Particulars: Table 2; MSD plates coated with MW1 (expanded polyglutamine) or MAB2166 capture antibody; "inactive" = result above the detection limit of the assay. An outline of the steps:
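MSD electrochemiluminescence sandwich ELISA: capture with MW1 (expanded polyQ) or MAB2166 at 1 µg/mL, samples incubated overnight at 4 °C. Detection by rabbit mAb #56565 then SULFO-TAG anti-rabbit antibody, each 0.25 µg/mL for 1 h at room temperature, read in buffer T on SI 6000 imager.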
`CC(C)[C@H]1CN(c2ncc(-c3ccc(-c4cn[nH]c4)cc3O)nn2)CCN1` [Cpd 20, 2-{3-[(3S)-3-(propan-2-yl)piperazin-1-yl]-1,2,4-triazin-6-yl}-5-(1H-pyrazol-4-yl)phenol]: the IC50 came out at 17.1 nM. `CC(C)N1CCN(c2ncc(-c3ccc(-c4cn[nH]c4)cc3O)nn2)CC1` [Cpd 60, 2-{3-[4-(propan-2-yl)piperazin-1-yl]-1,2,4-triazin-6-yl}-5-(1H-pyrazol-4-yl)phenol]: the IC50 was determined as 1010 nM. As for `COc1cc(-c2cnc(-c3cnc(N4CCN(C)CC4)nn3)c(O)c2)cc2cn(C)nc12` [Cpd 121, 5-(7-methoxy-2-methyl-2H-indazol-5-yl)-2-[3-(4-methylpiperazin-1-yl)-1,2,4-triazin-6-yl]pyridin-3-ol], the half-inhibitory concentration (IC50) is 16.1 nM. In turn, `Oc1cc(-c2cn[nH]c2)ccc1-c1cnc(N2CCN3C[C@H](O)C[C@H]3C2)nn1` [Cpd 59, (7R,8aS)-2-{6-[2-hydroxy-4-(1H-pyrazol-4-yl)phenyl]-1,2,4-triazin-3-yl}octahydropyrrolo[1,2-a]pyrazin-7-ol] registered an IC50 of 876 nM.

As to `Oc1cc(-c2ncsn2)ccc1-c1cnc(N2CCN[C@@H](C3CC3)C2)nn1` [Cpd 213, 2-{3-[(3S)-3-cyclopropylpiperazin-1-yl]-1,2,4-triazin-6-yl]-5-(1,2,4-thiadiazol-3-yl)phenol], the IC50 turned out to be 7.7 nM.

Molecule `Cc1ncn2cc(-c3ccc(-c4cnc(N5CCN[C@@H](C6CC6)C5)nn4)c(O)c3)ccc12` [Cpd 194, 2-{3-[(3S)-3-cyclopropylpiperazin-1-yl]-1,2,4-triazin-6-yl}-5-(1-methylimidazo[1,5-a]pyridin-6-yl)phenol] showed an IC50 of 19.3 nM. In turn, `C[C@@H]1CN(c2ncc(-c3ccc(-c4ccn(C)n4)cc3O)nn2)C[C@H](C2CCC2)N1` [Cpd 240, 2-{3-[(3S,5R)-3-cyclobutyl-5-methylpiperazin-1-yl]-1,2,4-triazin-6-yl}-5-(1-methyl-1H-pyrazol-3-yl)phenol] gave an IC50 of 171 nM. On the same count and under the same terms, as for `Cc1cn2cc(-c3ccc(-c4cnc(N5CCN(C)CC5)nn4)c(O)c3)cc(F)c2n1` [Cpd 73, 5-(8-fluoro-2-methylimidazo[1,2-a]pyridin-6-yl)-2-[3-(4-methylpiperazin-1-yl)-1,2,4-triazin-6-yl]phenol], the figure is 4.1 nM; as for `Cn1nc2cc(-c3cnc(-c4cnc(N5CCN[C@@H](C6CC6)C5)nn4)c(O)c3)cnc2n1` [Cpd 180, 2-{3-[(3S)-3-cyclopropylpiperazin-1-yl]-1,2,4-triazin-6-yl}-5-(2-methyl-2H-[1,2,3]triazolo[4,5-b]pyridin-6-yl)pyridin-3-ol], 27.6 nM; as for `Cc1cn2cc(-c3ccc(-c4cnc(N5CCN[C@@H](C(C)C)C5)nn4)c(O)c3)ncc2n1` [Cpd 141, 5-(2-methylimidazo[1,2-a]pyrazin-6-yl)-2-{3-[(3S)-3-(propan-2-yl)piperazin-1-yl]-1,2,4-triazin-6-yl}phenol], 2.3 nM. As for `Oc1cc(-c2c[nH]nc2F)ccc1-c1cnc(N2CCN[C@@H](C3CC3)C2)nn1` [Cpd 1, 2-{3-[(3S)-3-cyclopropylpiperazin-1-yl]-1,2,4-triazin-6-yl}-5-(3-fluoro-1H-pyrazol-4-yl)phenol], inhibition was half-maximal at 2.1 nM (IC50). `Cc1nc(-c2ccc(-c3cnc(N4CCN[C@@H](C5CC5)C4)nn3)c(O)c2)cs1` [Cpd 246, 2-{3-[(3S)-3-cyclopropylpiperazin-1-yl]-1,2,4-triazin-6-yl}-5-(2-methyl-1,3-thiazol-4-yl)phenol]: the IC50 is 28.4 nM. On the same count and under the same terms, as for `CC(C)[C@@H]1CN(c2ncc(-c3ccc(-c4cn[nH]c4F)cc3O)nn2)C[C@H](C)N1` [Cpd 217, 5-(5-fluoro-1H-pyrazol-4-yl)-2-{3-[(3S,5R)-3-methyl-5-(propan-2-yl)piperazin-1-yl]-1,2,4-triazin-6-yl]phenol], the figure is 67.9 nM; as for `Oc1cc(-c2cn3ncnc3cn2)ccc1-c1cnc(N2CCN[C@@H](C3CC3)C2)nn1` [Cpd 130, 2-{3-[(3S)-3-cyclopropylpiperazin-1-yl]-1,2,4-triazin-6-yl}-5-([1,2,4]triazolo[1,5-a]pyrazin-6-yl)phenol], 12 nM.

On to `Oc1cc(-c2cn[nH]c2)ccc1-c1cnc(N2CCN3CCOCC3C2)nn1` (stereo not drawn) [Cpd 64, 2-[3-(hexahydropyrazino[2,l-c][1,4]oxazin-8(1H)-yl)-1,2,4-triazin-6-yl]-5-(1H-pyrazol-4-yl)phenol], for which the “IC50 (nM)” value was “inactive”.

`C[C@@H]1CN(c2ncc(-c3ccc(-c4ccc5nn(C)cc5c4)cc3O)nn2)C[C@H](C)N1` [Cpd 72, 2-{3-[(3R,5S)-3,5-dimethylpiperazin-1-yl]-1,2,4-triazin-6-yl]-5-(2-methyl-2H-indazol-5-yl)phenol] came in with an IC50 of 4.1 nM. The molecule `[2H]C([2H])([2H])n1cc(-c2ccc(-c3cnc(N4CCN[C@@H](C(C)C)C4)nn3)c(O)c2)cn1` [Cpd 47, 5-[1-(Hz)methyl-1H-pyrazol-4-yl]-2-{3-[(3S)-3-(propan-2-yl)piperazin-1-yl]-1,2,4-triazin-6-yl}phenol] displayed an IC50 of 154 nM. As for `Oc1cc(-c2cn[nH]c2)ccc1-c1cnc(N2CCNC3(CC3)C2)nn1` [Cpd 55, 2-[3-(4,7-diazaspiro[2.5]octan-7-yl)-1,2,4-triazin-6-yl]-5-(1H-pyrazol-4-yl)phenol], 548 nM corresponded to half-maximal inhibition (IC50). Consider `Cc1cn2cc(-c3ccc(-c4cnc(N5C[C@@H](C)N[C@@H](C)C5)nn4)c(O)c3)nc(C)c2n1` [Cpd 103, 5-(2,8-dimethylimidazo[1,2-a]pyrazin-6-yl)-2-{3-[(3R,5S)-3,5-dimethylpiperazin-1-yl]-1,2,4-triazin-6-yl}phenol], for which the IC50 amounted to 13.4 nM. `Cc1cn2cc(-c3ccc(-c4cnc(N5CCN[C@@H](C(C)C)C5)nn4)c(O)c3)nc(C)c2n1` [Cpd 96, 5-(2,8-dimethylimidazo[1,2-a]pyrazin-6-yl)-2-{3-[(3S)-3-(propan-2-yl)piperazin-1-yl]-1,2,4-triazin-6-yl]phenol] registered an IC50 of 8.6 nM.

Take `CC[C@H]1CN(c2ncc(-c3ccc(-c4cn[nH]c4)cc3O)nn2)C[C@@H](C)N1` (racemic) [Cpd 148, 2-{3-[rac-(3S,5R)-3-ethyl-5-methylpiperazin-1-yl]-1,2,4-triazin-6-yl}-5-(1H-pyrazol-4-yl)phenol]: the midpoint of inhibition, the IC50, lay at 53.4 nM. In turn, `Cc1cn2nc(-c3ccc(-c4cnc(N5CCN(C)CC5)nn4)c(O)c3)ccc2n1` [Cpd 82, 5-(2-methylimidazo[1,2-b]pyridazin-6-yl)-2-[3-(4-methylpiperazin-1-yl)-1,2,4-triazin-6-yl]phenol] showed an IC50 of 5.5 nM. Still for that read-out and setting: as for `C[C@@H]1CN(c2ncc(-c3ccc(-c4cn[nH]c4)cc3O)nn2)C[C@H](C2CCC2)N1` [Cpd 231, 2-{3-[(3S,5R)-3-cyclobutyl-5-methylpiperazin-1-yl]-1,2,4-triazin-6-yl}-5-(1H-pyrazol-4-yl)phenol], the figure is 21.9 nM; as for `CC[C@H]1CN(c2ncc(-c3ccc(-c4c[nH]nc4F)cc3O)nn2)CCN1` [Cpd 123, 2-{3-[(3S)-3-ethylpiperazin-1-yl]-1,2,4-triazin-6-yl}-5-(3-fluoro-1H-pyrazol-4-yl)phenol], 11.2 nM.

`CC(C)[C@H]1CN(c2ncc(-c3ccc(-c4cn[nH]c4F)cc3O)nn2)C[C@@H](C)N1` [Cpd 222, 5-(5-fluoro-1H-pyrazol-4-yl)-2-{3-[(3R,5S)-3-methyl-5-(propan-2-yl)piperazin-1-yl]-1,2,4-triazin-6-yl]phenol] came in with an IC50 of 9.4 nM.

With `Cn1cc2cc(-c3ccc(-c4cnc(N5CCN6CCC[C@H]6C5)nn4)c(O)c3)cc(F)c2n1` [Cpd 99, 5-(7-fluoro-2-methyl-2H-indazol-5-yl)-2-{3-[(8aS)-hexahydropyrrolo[1,2-a]pyrazin-2(1H)-yl]-1,2,4-triazin-6-yl]phenol], the IC50 turned out to be 10.5 nM.

Molecule `[2H]C([2H])([2H])n1cc(-c2ccc(-c3cnc(N4CCNC(C(C)(C)O)C4)nn3)c(O)c2)cn1` (stereo not drawn) [Cpd 19, 2-{3-[3-(2-hydroxypropan-2-yl)piperazin-1-yl]-1,2,4-triazin-6-yl}-5-[1-(^2H3)methyl-1H-pyrazol-4-yl]phenol] had a half-inhibitory concentration (IC50) of 17.1 nM. Still for that read-out and setting: as for `CC(C)[C@@H]1CN(c2ncc(-c3ccc(-c4cn[nH]c4)cc3O)nn2)CCN1` [Cpd 40, 2-{3-[(3R)-3-(propan-2-yl)piperazin-1-yl]-1,2,4-triazin-6-yl}-5-(1H-pyrazol-4-yl)phenol], the figure is 68.2 nM; as for `C[C@@H]1CN(c2ncc(-c3ccc(-c4ccc5nn(C)nc5n4)cc3O)nn2)C[C@H](C)N1` [Cpd 201, 2-{3-[rac-(3R,5S)-3,5-dimethylpiperazin-1-yl]-1,2,4-triazin-6-yl}-5-(2-methyl-2H-[1,2,3]triazolo[4,5-b]pyridin-5-yl)phenol], 11.1 nM; as for `CC(C)[C@H]1CN(c2ncc(-c3ccc(-c4ccc5nccn5n4)cc3O)nn2)CCN1` [Cpd 102, 5-(imidazo[1,2-b]pyridazin-6-yl)-2-{3-[(3S)-3-(propan-2-yl)piperazin-1-yl]-1,2,4-triazin-6-yl}phenol], 13.4 nM. In turn, `CC(C)[C@H]1CN(c2ncc(-c3ccc(-c4cn5ccnc5cn4)cc3O)nn2)CCN1` [Cpd 113, 5-(imidazo[1,2-a]pyrazin-6-yl)-2-{3-[(3S)-3-(propan-2-yl)piperazin-1-yl]-1,2,4-triazin-6-yl}phenol] showed an IC50 of 36 nM.

With `[2H]C([2H])([2H])n1cc(-c2ccc(-c3cnc(N4CCN[C@@H](C5CC5)C4)nn3)c(O)c2)cn1` [Cpd 9, 2-{3-[(3S)-3-cyclopropylpiperazin-1-yl]-1,2,4-triazin-6-yl}-5-[1-(^2H3)methyl-1H-pyrazol-4-yl]phenol], the IC50 was found to be 9.5 nM. Take `Cc1cnn(-c2ccc(-c3cnc(N4CCN[C@@H](C(C)C)C4)nn3)c(O)c2)n1` [Cpd 184, 5-(4-methyl-2H-1,2,3-triazol-2-yl)-2-{3-[(3S)-3-(propan-2-yl)piperazin-1-yl]-1,2,4-triazin-6-yl}phenol]: the IC50 stood at 49 nM.
